In brackets after ≈: the same amount, converted by molar mass. Structures can show the parent of a compound that is named as a salt. Where two headings read alike, the source gives them in different places.
Legend:
[1] = Sustained release test (adriamycin liberated in phosphoric acid buffer physiological saline); format: physicochemical; settings: 1 mg in 0.0067 M phosphoric acid buffer physiological saline, initial pH=7.36-7.37, 37° C., HPLC
Description: One milligram of each of the adriamycin derivatives obtained in Examples 1, 2, 3, 4, 5 and 6 to be described later was dissolved in 0.0067 M phosphoric acid buffer physiological saline solution made by Bioproducts, Inc. (initial pH=7.36-7.37), and the solution was kept at 37° C. The amount of adriamycin liberated in the solution was analyzed by HPLC [column=YMC Pack A-312 S-5 120A ODS; mobile phase=0.05M ammonium formate buffer (pH=4.0):- acetonitrile=7:4, flow rate=1 ml/min; measuring wavelength=254 nm; retention time of adriamycin under the present conditions=3.8 minutes].
Consequently, a 50 % released time of adriamycin from the adriamycin derivatives is as follows, and sustained release was confirmed.

mouse leukemia cells = assay: Cytotoxicity test; settings: for Cytotoxicity, IC50: 48 hours, 37° C., RPMI1640 with 10% horse serum, trypan blue
Description: 5×10^4 cells/ml of mouse leukemia cells were inoculated in a RPMI1640 culture medium containing 10% horse serum, and the compound of the present invention was added to this such that the final concentration became 0.001 to 10.0 μg/ml. Cultivation was conducted in a carbon dioxide gas incubator (air containing 5% carbon dioxide gas) at 37° C. for 48 hours.

L1210 leukemia = assay: Test of anti-cancer activity to L1210 leukemia mice; format: in vivo, CDF1 mice; settings: i.p., 10 days; for Survived mice/test mice: observed 60 days
Description: 1×10^5 L1210 leukemia cells were inoculated into CDF1 mice intraperitoneally, and 24 hours later, the aqueous solution of the compound of this invention was intraperitoneally administered successively over 10 days. Test groups, each consisting of 6 mice, were fed and observed for 60 days, and percent prolongation of life (T/C; %) was found.

Toxicity test LD50 = format: in vivo; settings: mice, intravenously administered once
Description: LD50 given when the adriamycin derivatives of this invention were intravenously administered once in mice is as follows.

[2] = intravenous injection in mice; Collection of Medicaments in Japan, 1989; cited from earlier work
[3] = 9.54 mg/kg/day (2.5 as adriamycin)
[4] = 13.36 mg/kg/day (3.5 as adriamycin)
[5] = 19.08 mg/kg/day (5.0 as adriamycin)
[6] = 26.72 mg/kg/day (7.0 as adriamycin)
[7] = 38.17 mg/kg/day (10.0 as adriamycin)
[8] = 9.77 mg/kg/day (2.5 as adriamycin)
[9] = 19.53 mg/kg/day (5.0 as adriamycin)
[10] = 39.06 mg/kg/day (10.0 as adriamycin)
[11] = 78.13 mg/kg/day (20.0 as adriamycin)
[12] = 156.25 mg/kg/day (40.0 as adriamycin)

Compound: COc1cccc2c1C(=O)c1c(O)c3c(c(O)c1C2=O)C[C@@](O)(C(=O)COC(=O)CCC(=O)OC[C@H]1O[C@@H]2O[C@H]4[C@H](O)[C@@H](O)[C@@H](O[C@H]5[C@H](O)[C@@H](O)[C@@H](O[C@H]6[C@H](O)[C@@H](O)[C@@H](O[C@H]7[C@H](O)[C@@H](O)[C@@H](O[C@H]8[C@H](O)[C@@H](O)[C@@H](O[C@H]9[C@H](O)[C@@H](O)[C@@H](O[C@H]%10[C@H](O)[C@@H](O)[C@@H](O[C@H]1[C@H](O)[C@H]2O)O[C@@H]%10CO)O[C@@H]9CO)O[C@@H]8CO)O[C@@H]7CO)O[C@@H]6CO)O[C@@H]5CO)O[C@@H]4CO)C[C@@H]3O[C@H]1C[C@H](N)[C@H](O)[C@H](C)O1 [Example 6-ASC, adriamycin (14-position)-succinic acid (6-position) γ-cyclodextrin conjugate]
- 50 % released time of adriamycin from the adriamycin derivatives [1]: about 3 hours
- Cytotoxicity, IC50 (mouse leukemia cells): 0.21 µg/mL

Compound: COc1cccc2c1C(=O)c1c(O)c3c(c(O)c1C2=O)C[C@@](O)(C(=O)COC(=O)c1cc2ccccc2cc1C(=O)OC[C@H]1O[C@@H]2O[C@H]4[C@H](O)[C@@H](O)[C@@H](O[C@H]5[C@H](O)[C@@H](O)[C@@H](O[C@H]6[C@H](O)[C@@H](O)[C@@H](O[C@H]7[C@H](O)[C@@H](O)[C@@H](O[C@H]8[C@H](O)[C@@H](O)[C@@H](O[C@H]9[C@H](O)[C@@H](O)[C@@H](O[C@H]%10[C@H](O)[C@@H](O)[C@@H](O[C@H]1[C@H](O)[C@H]2O)O[C@@H]%10CO)O[C@@H]9CO)O[C@@H]8CO)O[C@@H]7CO)O[C@@H]6CO)O[C@@H]5CO)O[C@@H]4CO)C[C@@H]3O[C@H]1C[C@H](N)[C@H](O)[C@H](C)O1 [Example 6-ANC, adriamycin (14-position)-naphthalenedicarboxylic acid-(6-position) γ-cyclodextrin conjugate]
- 50 % released time of adriamycin from the adriamycin derivatives [1]: about 65 hours
- Cytotoxicity, IC50 (mouse leukemia cells): 0.79 µg/mL

Compound: adriamycin-succinic acid-γ-cyclodextrin conjugate [ASC]
- Anti-cancer activity, T/C (%) (L1210 leukemia; [3]): 207%
- Survived mice/test mice (L1210 leukemia; [3]): 0/6
- Anti-cancer activity, T/C (%) (L1210 leukemia; [4]): 545%
- Survived mice/test mice (L1210 leukemia; [4]): 3/6
- Anti-cancer activity, T/C (%) (L1210 leukemia; [5]): 552%
- Survived mice/test mice (L1210 leukemia; [5]): 3/6
- Anti-cancer activity, T/C (%) (L1210 leukemia; [6]): 193%
- Survived mice/test mice (L1210 leukemia; [6]): 0/6
- Anti-cancer activity, T/C (%) (L1210 leukemia; [7]): 159%
- Survived mice/test mice (L1210 leukemia; [7]): 0/6

Compound: COc1cccc2c1C(=O)c1c(O)c3c(c(O)c1C2=O)C[C@@](O)(C(=O)CO)C[C@@H]3O[C@H]1C[C@H](N)[C@H](O)[C@H](C)O1 [Adriamycin hydrochloride, reference compound]
- Anti-cancer activity, T/C (%) (L1210 leukemia; 0.31 mg/kg/day): 170%
- Survived mice/test mice (L1210 leukemia; 0.31 mg/kg/day): 0/6
- Anti-cancer activity, T/C (%) (L1210 leukemia; 0.63 mg/kg/day): 218%
- Survived mice/test mice (L1210 leukemia; 0.63 mg/kg/day): 0/6
- Anti-cancer activity, T/C (%) (L1210 leukemia; 1.25 mg/kg/day): 255%
- Survived mice/test mice (L1210 leukemia; 1.25 mg/kg/day): 0/6
- Anti-cancer activity, T/C (%) (L1210 leukemia; 2.50 mg/kg/day): 177%
- Survived mice/test mice (L1210 leukemia; 2.50 mg/kg/day): 0/6
- Anti-cancer activity, T/C (%) (L1210 leukemia; 5.00 mg/kg/day): 132%
- Survived mice/test mice (L1210 leukemia; 5.00 mg/kg/day): 0/6

Compound: COc1cccc2c1C(=O)c1c(O)c3c(c(O)c1C2=O)C[C@@](O)(C(=O)COC(=O)C1CCCCC1C(=O)OC[C@H]1O[C@@H]2O[C@H]4[C@H](O)[C@@H](O)[C@@H](O[C@H]5[C@H](O)[C@@H](O)[C@@H](O[C@H]6[C@H](O)[C@@H](O)[C@@H](O[C@H]7[C@H](O)[C@@H](O)[C@@H](O[C@H]8[C@H](O)[C@@H](O)[C@@H](O[C@H]9[C@H](O)[C@@H](O)[C@@H](O[C@H]%10[C@H](O)[C@@H](O)[C@@H](O[C@H]1[C@H](O)[C@H]2O)O[C@@H]%10CO)O[C@@H]9CO)O[C@@H]8CO)O[C@@H]7CO)O[C@@H]6CO)O[C@@H]5CO)O[C@@H]4CO)C[C@@H]3O[C@H]1C[C@H](N)[C@H](O)[C@H](C)O1 (some centres unmarked) [Example 6-ACC, adriamycin (14-position)-ciscyclohexanedicarboxylic acid-(6-position) γ-cyclodextrin conjugate]
- 50 % released time of adriamycin from the adriamycin derivatives [1]: > 70 h
- Cytotoxicity, IC50 (mouse leukemia cells): 2.07 µg/mL

Compound: adriamycin-phthalic acid-γ-cyclodextrin conjugate [APC]
- 50 % released time of adriamycin from the adriamycin derivatives [1]: about 20 hours
- LD50 (Toxicity test LD50; as derivative): 555 mg/kg
- LD50 as adriamycin (Toxicity test LD50; calculated as adriamycin): 147 mg/kg as adriamycin
- Cytotoxicity, IC50 (mouse leukemia cells): 0.32 µg/mL
- Anti-cancer activity, T/C (%) (L1210 leukemia; [8]): 164%
- Survived mice/test mice (L1210 leukemia; [8]): 0/6
- Anti-cancer activity, T/C (%) (L1210 leukemia; [9]): 234%
- Survived mice/test mice (L1210 leukemia; [9]): 0/6
- Anti-cancer activity, T/C (%) (L1210 leukemia; [10]): 468%
- Survived mice/test mice (L1210 leukemia; [10]): 2/6
- Anti-cancer activity, T/C (%) (L1210 leukemia; [11]): 475%
- Survived mice/test mice (L1210 leukemia; [11]): 0/6
- Anti-cancer activity, T/C (%) (L1210 leukemia; [12]): 143%
- Survived mice/test mice (L1210 leukemia; [12]): 0/6

Compound: COc1cccc2c1C(=O)c1c(O)c3c(c(O)c1C2=O)C[C@@](O)(C(=O)COC(=O)c1ccccc1C(=O)OC[C@H]1O[C@@H]2O[C@H]4[C@H](O)[C@@H](O)[C@@H](O[C@H]5[C@H](O)[C@@H](O)[C@@H](O[C@H]6[C@H](O)[C@@H](O)[C@@H](O[C@H]7[C@H](O)[C@@H](O)[C@@H](O[C@H]8[C@H](O)[C@@H](O)[C@@H](O[C@H]9[C@H](O)[C@@H](O)[C@@H](O[C@H]%10[C@H](O)[C@@H](O)[C@@H](O[C@H]1[C@H](O)[C@H]2O)O[C@@H]%10CO)O[C@@H]9CO)O[C@@H]8CO)O[C@@H]7CO)O[C@@H]6CO)O[C@@H]5CO)O[C@@H]4CO)C[C@@H]3O[C@H]1C[C@H](N)[C@H](O)[C@H](C)O1 [Example 6-APC, adriamycin (14-position)-phthalic acid-(6-position) γ-cyclodextrin conjugate]
- 50 % released time of adriamycin from the adriamycin derivatives [1]: about 45 hours
- Cytotoxicity, IC50 (mouse leukemia cells): 0.49 µg/mL

Compound: COc1cccc2c1C(=O)c1c(O)c3c(c(O)c1C2=O)C[C@@](O)(C(=O)CO)C[C@@H]3O[C@H]1C[C@H](N)[C@H](O)[C@H](C)O1 [Adriamycin, adriamycin]
- LD50 [2]: 9.8 mg/kg
- IC50 (mouse leukemia cells; Mus musculus, 48 h, read-out: Cytotoxicity, IC50): 0.058 µg/mL (≈ 0.107 µM)

From patent US5183883A, “Conjugate of adriamycin and cyclodextrin” (Mercian Corporation, priority 1990, dated 1993)
